Measurements as given in PubChem BioAssay AID1918932 (Molecular Pharmacology Branch, DTP, NCI, 2023).
Where “and” joins values, the source holds several entries; their conditions need not be identical. Identical values can stand only once.

Test system: 171881-019-R-J1-PDC complex spheroid viability
Assay: Anticancer human tumor 171881-019-R-J1-PDC patient-derived invasive breast carcinoma cell line growth inhibition
Details: for viability, T/C: stronger effect = lower value
How it was run: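 Complex spheroids of tumor cells with HUVEC and human MSCs, exposed to iadademstat combined with other agents. Each agent tested in half-log steps from near clinical Cmax (else 10 microM top), DMSO ≤0.25%.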

[1] = curve of first compound, second compound 0.1 µM
[2] = curve of first compound, second compound 0.316 µM
[3] = curve of first compound, second compound 1 µM
[4] = curve of first compound, second compound 3.16 µM
[5] = curve of first compound, second compound 10 µM
[6] = second compound 0.1 µM, first compound 0.0316 µM
[7] = second compound 0.1 µM, first compound 0.1 µM
[8] = second compound 0.1 µM, first compound 0.316 µM
[9] = second compound 0.1 µM, first compound 1 µM
[10] = second compound 0.316 µM, first compound 0.0316 µM
[11] = second compound 0.316 µM, first compound 0.1 µM
[12] = second compound 0.316 µM, first compound 0.316 µM
[13] = second compound 0.316 µM, first compound 1 µM
[14] = second compound 1 µM, first compound 0.0316 µM
[15] = second compound 1 µM, first compound 0.1 µM
[16] = second compound 1 µM, first compound 0.316 µM
[17] = second compound 1 µM, first compound 1 µM
[18] = second compound 3.16 µM, first compound 0.0316 µM
[19] = second compound 3.16 µM, first compound 0.1 µM
[20] = second compound 3.16 µM, first compound 0.316 µM
[21] = second compound 3.16 µM, first compound 1 µM
[22] = second compound 10 µM, first compound 0.0316 µM
[23] = second compound 10 µM, first compound 0.1 µM
[24] = second compound 10 µM, first compound 0.316 µM
[25] = second compound 10 µM, first compound 1 µM

For O=C(C=Cc1cccc(S(=O)(=O)Nc2ccccc2)c1)NO, the viability, T/C (compound 0.00949 µM) was 95.8% and 103%, the viability, T/C (compound 0.03 µM) was 96.6% and 93% and the viability, T/C (compound 0.0949 µM) was 111% and 99.2%. For the same compound, the viability, T/C (compound 0.3 µM) was 72.5% and 65.1%, the viability, T/C (compound 0.949 µM) was 0.88% and 1.85% and the viability, T/C (compound 3 µM) was 0.2% and 0.16%. The IC50 (curve of compound) was 430 nM and 395 nM.
In the case of CC(C)c1c(-c2ccccc2)nc2c(C#N)c[nH]n2c1=O + NC1CC1c1ccc(-c2cccc(O)c2)cc1, the IC50 [1] is reported as 4990 nM, the IC50 [2] is reported as 5400 nM and the IC50 [3] is reported as 5360 nM. It also gave an IC50 [4] of 5450 nM, an IC50 [5] of 4950 nM and a viability, T/C [6] of 104%. It also gave a viability, T/C [7] of 103%, a viability, T/C [8] of 93% and a viability, T/C [9] of 87.3%. The viability, T/C (second compound 0.1 µM, first compound 3.16 µM) was 72.1%, the viability, T/C (second compound 0.1 µM, first compound 10 µM) was 19.8% and the viability, T/C [10] was 102%. It also gave a viability, T/C [11] of 102%, a viability, T/C [12] of 95.8% and a viability, T/C [13] of 90.4%. The viability, T/C (second compound 0.316 µM, first compound 3.16 µM) was 75.5%, the viability, T/C (second compound 0.316 µM, first compound 10 µM) was 22.1% and the viability, T/C [14] was 108%. The viability, T/C [15] was 101%, the viability, T/C [16] was 93.9% and the viability, T/C [17] was 89.5%. It also gave a viability, T/C (second compound 1 µM, first compound 3.16 µM) of 75.7%, a viability, T/C (second compound 1 µM, first compound 10 µM) of 22.5% and a viability, T/C [18] of 103%. The viability, T/C [19] was 98.6%, the viability, T/C [20] was 97% and the viability, T/C [21] was 87.4%. For the same compound, the viability, T/C (second compound 3.16 µM, first compound 3.16 µM) was 77.1%, the viability, T/C (second compound 3.16 µM, first compound 10 µM) was 22% and the viability, T/C [22] was 85.7%. For the same compound, the viability, T/C [23] was 81.9%, the viability, T/C [24] was 81.4% and the viability, T/C [25] was 80.5%. For the same compound, the viability, T/C (second compound 10 µM, first compound 3.16 µM) was 70.6% and the viability, T/C (second compound 10 µM, first compound 10 µM) was 18.1%.
CC1COCCN1c1cc(-c2ccnn2C)c2ccnc(-c3ccn[nH]3)c2n1 (stereo unspecified) + NC1CCC(NC2CC2c2ccccc2)CC1 gave an IC50 [1] of 10.2 nM, an IC50 [2] of 9.5 nM and an IC50 [3] of 10.5 nM. It also gave an IC50 [4] of 13.6 nM, an IC50 [5] of 13.7 nM and a viability, T/C (second compound 0.1 µM, first compound 0.00316 µM) of 57%. It also gave a viability, T/C (second compound 0.1 µM, first compound 0.01 µM) of 50.7%, a viability, T/C [6] of 18.8% and a viability, T/C [7] of 8.26%. The viability, T/C [8] was 6.58%, the viability, T/C [9] was 5.76% and the viability, T/C (second compound 0.316 µM, first compound 0.00316 µM) was 63.3%. It also gave a viability, T/C (second compound 0.316 µM, first compound 0.01 µM) of 49.5%, a viability, T/C [10] of 19% and a viability, T/C [11] of 8.72%. For the same compound, the viability, T/C [12] was 6.3%, the viability, T/C [13] was 6.44% and the viability, T/C (second compound 1 µM, first compound 0.00316 µM) was 65.3%. It also gave a viability, T/C (second compound 1 µM, first compound 0.01 µM) of 51.2%, a viability, T/C [14] of 24.1% and a viability, T/C [15] of 10.6%. For the same compound, the viability, T/C [16] was 6.7%, the viability, T/C [17] was 7.53% and the viability, T/C (second compound 3.16 µM, first compound 0.00316 µM) was 70.8%. For the same compound, the viability, T/C (second compound 3.16 µM, first compound 0.01 µM) was 58.9%, the viability, T/C [18] was 25.7% and the viability, T/C [19] was 9.54%. It also gave a viability, T/C [20] of 7.15%, a viability, T/C [21] of 6.61% and a viability, T/C (second compound 10 µM, first compound 0.00316 µM) of 70%. The viability, T/C (second compound 10 µM, first compound 0.01 µM) was 58.3%, the viability, T/C [22] was 27.1% and the viability, T/C [23] was 10.1%. For the same compound, the viability, T/C [24] was 7.47% and the viability, T/C [25] was 10.2%.
COc1cc(Nc2ncc3c(n2)-c2ccc(Cl)cc2C(c2c(F)cccc2OC)=NC3)ccc1C(=O)O was tested, and the viability, T/C (compound 0.00316 µM) was 91.6% and 57%, the viability, T/C (compound 0.01 µM) was 85.9% and 64.4% and the viability, T/C (compound 0.0316 µM) was 84.5% and 63.2%. For the same compound, the viability, T/C (compound 0.1 µM) was 89% and 58.9%, the viability, T/C (compound 0.316 µM) was 80.6% and 54.1% and the viability, T/C (compound 1 µM) was 51.5% and 30.1%. The IC50 (curve of compound) was > 1000 nM and 384 nM.
With COc1cc(C2c3cc4c(cc3C(OC3OC5COC(C)OC5C(O)C3O)C3COC(=O)C23)OCO4)cc(OC)c1O (stereo unspecified) the viability, T/C (compound 0.00949 µM) was 97.7% and 100%, the viability, T/C (compound 0.03 µM) was 121% and 90% and the viability, T/C (compound 0.0949 µM) was 78.5% and 72.5%. The viability, T/C (compound 0.3 µM) was 51.8% and 64.3%, the viability, T/C (compound 0.949 µM) was 32.6% and 49.3% and the viability, T/C (compound 3 µM) was 17.2% and 29.7%. For the same compound, the IC50 (curve of compound) was 315 nM and 775 nM.
